Data from patent publication US20220289753A1, “SHP2 INHIBITORS” (IRBM S.P.A., priority 2019, published 2022).

Key:
[1] = target: T1, SHP-2 enzyme (Met1-Leu525) (Homo sapiens, UniProt Q06124); assay: SHP2 inhibition enzymatic assay (DiFMUP substrate, IRS1 peptide activation); format: biochemical; conditions: SHP2 wt; activated by 500 nM IRS1 peptide; 75 μM DiFMUP substrate
T1 construct: synthetized by Origene, Met1-Leu525, cat #TP750155; purchased Origene TP750155
T1 sequence (Q06124 1-525): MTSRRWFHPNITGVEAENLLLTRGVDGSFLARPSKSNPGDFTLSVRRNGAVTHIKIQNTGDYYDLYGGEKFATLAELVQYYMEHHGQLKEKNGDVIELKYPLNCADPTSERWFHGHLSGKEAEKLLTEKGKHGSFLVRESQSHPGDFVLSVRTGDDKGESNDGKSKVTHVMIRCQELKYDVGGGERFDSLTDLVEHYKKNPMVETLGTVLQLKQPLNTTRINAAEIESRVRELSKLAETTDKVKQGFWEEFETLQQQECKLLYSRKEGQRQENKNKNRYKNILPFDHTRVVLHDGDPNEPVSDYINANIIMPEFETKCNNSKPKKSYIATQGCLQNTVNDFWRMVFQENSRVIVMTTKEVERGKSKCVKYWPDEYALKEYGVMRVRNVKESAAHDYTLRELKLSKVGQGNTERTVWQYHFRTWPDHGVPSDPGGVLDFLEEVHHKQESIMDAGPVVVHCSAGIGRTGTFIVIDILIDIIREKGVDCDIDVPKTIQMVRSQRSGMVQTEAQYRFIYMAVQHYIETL
In short: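 SHP-2 (Met1-Leu525, 0.5 nM final) preincubated 30 min with compounds and IRS1 activating peptide in HEPES pH 7.2 buffer with NaCl, KCl, EDTA, tween-20, 5 mM DTT. DiFMUP then added for 30 min at room temperature and fluorescence read. IC50 from four-parameter logistic fit of % inhibition.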

[2] = test system: ERK phosphorylation in KYSE-520 cells; assay: Phospho-ERK cellular assay (Advanced phospho-ERK1/2 (Thr202/Tyr204) TR-FRET kit); format: cell-based; conditions: Homo sapiens, KYSE-520, 2 h, KYSE-520 cells, 2 h at 37° C., TR-FRET; read-out: pERK IC50
In short: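 IC50 values are inflection points of four-parameter logistic fits of percent activity against compound dilution. Compound exposure lasted 2 h at 37° C in KYSE-520 cells. Lysates were probed overnight with Eu-cryptate/d2 antibodies to ERK1/2 phosphorylated at Thr202/Tyr204, so reduced TR-FRET indicates SHP2 inhibition.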

SMILES	IC50 [1] [nM]	IC50 [2] [nM]
N[C@@H]1c2ccncc2CC12CCN(c1nc3ncc(Sc4ccnc(NC5CC5)c4Cl)nc3[nH]1)CC2 [Example 196, (S)-1′-(5-((3-chloro-2-(cyclopropylamino)pyridin-4-yl)thio)-1H-imidazo[4,5-b]pyrazin-2-yl)-5,7-dihydrospiro[cyclopenta[c]pyridine-6,4′-piperidin]-5-amine]	< 500	< 1000
N[C@@H]1c2ccccc2CC12CCN(c1nc3nc(Sc4ccc[nH]c4=O)cnc3[nH]1)CC2 [Example 238, (S)-3-((2-(1-amino-1,3-dihydrospiro[indene-2,4′-piperidin]-1′-yl)-1H-imidazo[4,5-b]pyrazin-5-yl)thio)pyridin-2(1H)-one]	< 500	> 5000
Nc1nccc(Sc2cnc3[nH]c(N4CCC5(CC4)Cc4ncccc4[C@H]5N)nc3n2)c1Cl [Example 145, (S)-1′-(5-((2-amino-3-chloropyridin-4-yl)thio)-1H-imidazo[4,5-b]pyrazin-2-yl)-5,7-dihydrospiro[cyclopenta[b]pyridine-6,4′-piperidin]-5-amine]	< 500	< 1000
N[C@@H]1c2ccccc2CC12CCN(c1nc3nc(Sc4ccc5cc[nH]c5c4)cnc3[nH]1)CC2 [Example 193, (S)-1′-(5-((1H-indol-6-yl)thio)-1H-imidazo[4,5-b]pyrazin-2-yl)-1,3-dihydrospiro[indene-2,4′-piperidin]-1-amine]	< 500	1000 to 5000
COc1nccc(Sc2cnc3[nH]c(N4CCC5(CC4)Cc4ccccc4[C@H]5N)nc3n2)c1Cl [Example 239, (S)-1′-(5-((3-chloro-2-methoxypyridin-4-yl)thio)-1H-imidazo[4,5-b]pyrazin-2-yl)-1,3-dihydrospiro[indene-2,4′-piperidin]-1-amine]	< 500	1000 to 5000
N[C@@H]1c2ccccc2CC12CCN(c1nc3ncc(Sc4cccc5c4OCCO5)nc3[nH]1)CC2 [Example 167, (S)-1′-(6-((2,3-dihydrobenzo[b][1,4]dioxin-5-yl)thio)-1H-imidazo[4,5-b]pyrazin-2-yl)-1,3-dihydrospiro[indene-2,4′-piperidin]-1-amine]	< 500	< 1000
N[C@@H]1c2ccccc2CC12CCN(c1nc3nc(Sc4cnc5ccccn5c4=O)cnc3[nH]1)CC2 [Example 221, (S)-3-((2-(1-amino-1,3-dihydrospiro[indene-2,4′-piperidin]-1′-yl)-1H-imidazo[4,5-b]pyrazin-5-yl)thio)-4H-pyrido[1,2-a]pyrimidin-4-one]	500 to 3000	1000 to 5000
N[C@@H]1c2cccnc2CC12CCN(c1nc3nc(Sc4ccnc(Cl)c4C(F)(F)F)cnc3[nH]1)CC2 [Example 262, (S)-1′-(5-((2-chloro-3-(trifluoromethyl)pyridin-4-yl)thio)-1H-imidazo[4,5-b]pyrazin-2-yl)-5,7-dihydrospiro[cyclopenta[b]pyridine-6,4′-piperidin]-5-amine]	< 500	< 1000
N[C@@H]1c2cccnc2CC12CCN(c1nc3ncc(Sc4ccnc(NC5CC5)c4Cl)nc3[nH]1)CC2 [Example 161, (S)-1′-(6-((3-chloro-2-(cyclopropylamino)pyridin-4-yl)thio)-1H-imidazo[4,5-b]pyrazin-2-yl)-5,7-dihydrospiro[cyclopenta[b]pyridine-6,4′-piperidin]-5-amine]	< 500	1000 to 5000
COc1nc(N)ccc1Sc1cnc2[nH]c(N3CCC4(CC3)Cc3ccccc3[C@H]4N)nc2n1 [Example 269, (S)-1′-(5-((6-amino-2-methoxypyridin-3-yl)thio)-1H-imidazo[4,5-b]pyrazin-2-yl)-1,3-dihydrospiro[indene-2,4′-piperidin]-1-amine]	< 500	< 1000
N[C@@H]1c2cc(F)c(F)cc2CC12CCN(c1nc3nc(Sc4ccnc(NC5CC5)c4Cl)cnc3[nH]1)CC2 [Example 189, (S)-1′-(5-((3-chloro-2-(cyclopropylamino)pyridin-4-yl)thio)-1H-imidazo[4,5-b]pyrazin-2-yl)-5,6-difluoro-1,3-dihydrospiro[indene-2,4′-piperidin]-1-amine]	< 500	< 1000
N[C@@H]1c2ccccc2OC12CCN(c1nc3nc(Sc4cccnc4C(F)(F)F)cnc3[nH]1)CC2 [Example 143, (R)-1′-(5-((2-(trifluoromethyl)pyridin-3-yl)thio)-1H-imidazo[4,5-b]pyrazin-2-yl)-3H-spiro[benzofuran-2,4′-piperidin]-3-amine]	< 500	< 1000
N[C@@H]1c2ccccc2CC12CCN(c1nc3ncc(Sc4ccnc5cccnc45)nc3[nH]1)CC2 [Example 164, (S)-1′-(6-((1,5-naphthyridin-4-yl)thio)-1H-imidazo[4,5-b]pyrazin-2-yl)-1,3-dihydrospiro[indene-2,4′-piperidin]-1-amine]	< 500	< 1000
N[C@@H]1c2ccccc2CC12CCN(c1nc3nc(Sc4cccc5c4C(F)(F)C(=O)N5)cnc3[nH]1)CC2 [Example 162, (S)-4-((2-(1-amino-1,3-dihydrospiro[indene-2,4′-piperidin]-1′-yl)-1H-imidazo[4,5-b]pyrazin-5-yl)thio)-3,3-difluoroindolin-2-one]	< 500	< 1000
N[C@H]1c2ccncc2CC12CCN(c1nc3nc(Sc4ccnc(NC5CC5)c4Cl)cnc3[nH]1)CC2 [Example 197, (R)-1′-(5-((3-chloro-2-(cyclopropylamino)pyridin-4-yl)thio)-1H-imidazo[4,5-b]pyrazin-2-yl)-5,7-dihydrospiro[cyclopenta[c]pyridine-6,4′-piperidin]-5-amine]	< 500	1000 to 5000
N[C@@H]1c2ccccc2CC12CCN(c1nc3nc(Sc4ccnc5[nH]ccc45)cnc3[nH]1)CC2 [Example 232, (S)-1′-(5-((1H-pyrrolo[2,3-b]pyridin-4-yl)thio)-1H-imidazo[4,5-b]pyrazin-2-yl)-1,3-dihydrospiro[indene-2,4′-piperidin]-1-amine]	< 500	< 1000
CC1(N)CCN(c2nc3ncc(Sc4cccc(Cl)c4Cl)nc3[nH]2)CC1 [Example 22, 1-(5-((2,3-dichlorophenyl)thio)-1H-imidazo[4,5-b]pyrazin-2-yl)-4-methylpiperidin-4-amine]	< 500	1000 to 5000
N[C@@H]1c2ccccc2OC12CCN(c1nc3nc(Sc4ccncc4Cl)cnc3[nH]1)CC2 [Example 155, (R)-1′-(5-((3-chloropyridin-4-yl)thio)-1H-imidazo[4,5-b]pyrazin-2-yl)-3H-spiro[benzofuran-2,4′-piperidin]-3-amine]	< 500	1000 to 5000
N[C@@H]1c2cc(F)ccc2CC12CCN(c1nc3ncc(Sc4cccc5c4OCCN5)nc3[nH]1)CC2 [Example 184, (S)-1′-(6-((3,4-dihydro-2H-benzo[b][1,4]oxazin-8-yl)thio)-1H-imidazo[4,5-b]pyrazin-2-yl)-6-fluoro-1,3-dihydrospiro[indene-2,4′-piperidin]-1-amine]	< 500	< 1000
CCOc1cnccc1Sc1cnc2[nH]c(N3CCC4(CC3)Cc3ccccc3[C@H]4N)nc2n1 [Example 200, (S)-1′-(5-((3-ethoxypyridin-4-yl)thio)-1H-imidazo[4,5-b]pyrazin-2-yl)-1,3-dihydrospiro[indene-2,4′-piperidin]-1-amine]	< 500	< 1000
